Test results from patent US8080529B2, “Macrolides with anti-inflammatory activity” (Glaxo Group Limited, priority 2005, dated 2011).
Like-named read-outs stand apart in the source and are kept apart here.

Assays:
Type in all cases: cell-based
IL-6 = assay: Inhibition of IL-6 production by stimulated human peripheral blood leukocytes in vitro; settings: for inhibition at 10 µM / inhibition at 50 µM: Homo sapiens, Leukocyte, read-out: Percentage of inhibition of IL-6 production
Description: (§1) Test substances used in in vitro experiments were dissolved in dimethyl sulfoxide (DMSO) (Kemika, Croatia) at concentrations of 50 mM and 10 mM, and were further diluted to final concentrations of 50 μM and 10 μM in 1 mL Dulbecco's modified Eagle medium (DMEM) supplemented with 1% heat inactivated fetal bovine serum (FBS), 1% L-glutamine, 50 U/ml penicillin, 50 μg/ml streptomycin and 2.5 μg/mL Fungizone (amphotericin B). Media and all media supplements were purchased from Gibco, Australia, except the FBS was purchased from Sigma, USA.
(§2) Peripheral blood leukocytes (PBL) were obtained from venous blood of healthy volunteers by sedimentation on 2% dextran T-500 (Amersham Biosciences, USA) and subsequent centrifugations of leukocyte rich plasma.
(§3) Peripheral blood leukocytes (PBL), isolated as described above, were seeded in a 48-well plate at a concentration of 3 to 5×10^6 cell per well in culture medium consisting of RPMI 1640 medium (Institute of Immunology, Croatia) supplemented with 10% heat-inactivated fetal calf serum (FCS, Biowhittaker, USA), 100 U/ml penicillin (Gibco, Australia), 100 μg/ml streptomycin (Gibco, Australia) and 2 mM L-glutamine (Gibco, Australia), and preincubated with the test compounds for 2 h at 37° C., in an atmosphere of 5% CO2, and 90% humidity. Then, stimuli (Sigma, USA) were added to a final concentration of 2 μg/mL lipopolysaccharide (LPS), 1 μg/mL phorbol 12-myristate 13-acetate (PMA) or 120 μg/mL zymosan. Samples were incubated overnight under conditions described above. At the end of incubation, the supernatants were transferred to eppendorf tubes and centrifuged for 10 min at 1500×g. Concentrations of human TNF-α, IL-1β, IL-6 and IL-8 were determined in cell supernatants by sandwich ELISA, using capture and detection antibodies (R&D Systems, Minneapolis, Minn.) according to the manufacturer's recommendations.
(§4) Inhibition (as percentage) was calculated using the following formula: % inhibition=(1−concentration of cytokines in sample/concentration of cytokines in positive control)×100.
(§5) The positive control refers to LPS-, PMA- or zymosan-stimulated samples that were not preincubated with test compounds.

TNF-α = assay: Inhibition of TNF-α production by stimulated human peripheral blood leukocytes in vitro; settings: for inhibition at 10 µM / inhibition at 50 µM: Homo sapiens, Leukocyte, read-out: Percentage of inhibition of TNF-α production
Description: as §1, §2, §3, §4, §5

IL-1α = assay: Inhibition of IL-1 production by stimulated human peripheral blood leukocytes in vitro; settings: for inhibition at 10 µM / inhibition at 50 µM: Homo sapiens, Leukocyte, read-out: Percentage of inhibition of IL-1α production
IL-8 = assay: Inhibition of IL-8 production by stimulated human peripheral blood leukocytes in vitro; settings: for inhibition at 10 µM / inhibition at 50 µM: Homo sapiens, Leukocyte, read-out: Percentage of inhibition of IL-8 production
Description: as §1, §2, §3, §4, §5

Structure (SMILES): CCC1OC(=O)C(C)C(OC2CC(C)(OC)C(OCCCN3CCN(CCN(CC)CC)CC3)C(C)O2)C(C)C(OC2OC(C)CC(N(C)C)C2O)C(C)(O)CC(C)CN(C)C(C)C2OC(=O)OC12C (stereo not drawn) [Example 97, 4″-O-{3-[4-(2-Diethylamino-ethyl)-piperazin-1-yl]-propyl}azithromycin 11,12-cyclic carbonate]
- Percentage of inhibition of IL-6 production (IL-6; 10 μM, LPS-stimulated PBL): 0%
- Percentage of inhibition of IL-6 production (IL-6; 10 μM, PMA-stimulated PBL): 32%
- Percentage of inhibition of IL-6 production (IL-6; 10 μM, zymosan-stimulated PBL): 9%
- Percentage of inhibition of IL-6 production (IL-6; 50 μM, LPS-stimulated PBL): 14%
- Percentage of inhibition of IL-6 production (IL-6; 50 μM, PMA-stimulated PBL): 51%
- Percentage of inhibition of IL-6 production (IL-6; 50 μM, zymosan-stimulated PBL): 56%
- Percentage of inhibition of TNF-α production (TNF-α; 10 μM, LPS-stimulated PBL): 0%
- Percentage of inhibition of TNF-α production (TNF-α; 10 μM, PMA-stimulated PBL): 31%
- Percentage of inhibition of TNF-α production (TNF-α; 10 μM, zymosan-stimulated PBL): 43%
- Percentage of inhibition of TNF-α production (TNF-α; 50 μM, LPS-stimulated PBL): 62%
- Percentage of inhibition of TNF-α production (TNF-α; 50 μM, PMA-stimulated PBL): 57%
- Percentage of inhibition of TNF-α production (TNF-α; 50 μM, zymosan-stimulated PBL): 69%
- Percentage of inhibition of IL-1α production (IL-1α; 10 μM, LPS-stimulated PBL): 0%
- Percentage of inhibition of IL-1α production (IL-1α; 10 μM, PMA-stimulated PBL): 57%
- Percentage of inhibition of IL-1α production (IL-1α; 10 μM, zymosan-stimulated PBL): 49%
- Percentage of inhibition of IL-1α production (IL-1α; 50 μM, LPS-stimulated PBL): 0%
- Percentage of inhibition of IL-1α production (IL-1α; 50 μM, PMA-stimulated PBL): 79%
- Percentage of inhibition of IL-1α production (IL-1α; 50 μM, zymosan-stimulated PBL): 34%
- Percentage of inhibition of IL-8 production (IL-8; 10 μM, LPS-stimulated PBL): 0%
- Percentage of inhibition of IL-8 production (IL-8; 10 μM, PMA-stimulated PBL): 4%
- Percentage of inhibition of IL-8 production (IL-8; 10 μM, zymosan-stimulated PBL): 10%
- Percentage of inhibition of IL-8 production (IL-8; 50 μM, LPS-stimulated PBL): 23%
- Percentage of inhibition of IL-8 production (IL-8; 50 μM, PMA-stimulated PBL): 29%
- Percentage of inhibition of IL-8 production (IL-8; 50 μM, zymosan-stimulated PBL): 34%

Structure (SMILES): CC[C@H]1OC(=O)[C@H](C)[C@@H](O[C@H]2C[C@@](C)(OC)C(OC(=O)CCN(CC)CC)[C@H](C)O2)[C@H](C)[C@@H](O[C@@H]2O[C@H](C)C[C@H](NC)[C@H]2O)[C@](C)(O)C[C@@H](C)CN(C)[C@H](C)[C@@H](O)[C@]1(C)O (stereo partly drawn) [Example 90, 3′-N-Demethyl-4″-O-(3-diethylaminopropionyl)-azithromycin]
- inhibition at 10 µM (IL-6; 10 μM, LPS-stimulated PBL): 67%
- inhibition at 10 µM (IL-6; 10 μM, PMA-stimulated PBL): 46%
- inhibition at 10 µM (IL-6; 10 μM, zymosan-stimulated PBL): 60%
- inhibition at 50 µM (IL-6; 50 μM, LPS-stimulated PBL): 88%
- inhibition at 50 µM (IL-6; 50 μM, PMA-stimulated PBL): 90%
- inhibition at 50 µM (IL-6; 50 μM, zymosan-stimulated PBL): 100%
- inhibition at 10 µM (TNF-α; 10 μM, LPS-stimulated PBL): 78%
- inhibition at 10 µM (TNF-α; 10 μM, PMA-stimulated PBL): 40%
- inhibition at 10 µM (TNF-α; 10 μM, zymosan-stimulated PBL): 53%
- inhibition at 50 µM (TNF-α; 50 μM, LPS-stimulated PBL): 100%
- inhibition at 50 µM (TNF-α; 50 μM, PMA-stimulated PBL): 95%
- inhibition at 50 µM (TNF-α; 50 μM, zymosan-stimulated PBL): 94%
- inhibition at 10 µM (IL-1α; 10 μM, LPS-stimulated PBL): 62%
- inhibition at 10 µM (IL-1α; 10 μM, PMA-stimulated PBL): 61%
- inhibition at 10 µM (IL-1α; 10 μM, zymosan-stimulated PBL): 82%
- inhibition at 50 µM (IL-1α; 50 μM, LPS-stimulated PBL): 91%
- inhibition at 50 µM (IL-1α; 50 μM, PMA-stimulated PBL): 57%
- inhibition at 50 µM (IL-1α; 50 μM, zymosan-stimulated PBL): 100%
- inhibition at 10 µM (IL-8; 10 μM, LPS-stimulated PBL): 4%
- inhibition at 10 µM (IL-8; 10 μM, PMA-stimulated PBL): 0%
- inhibition at 10 µM (IL-8; 10 μM, zymosan-stimulated PBL): 24%
- inhibition at 50 µM (IL-8; 50 μM, LPS-stimulated PBL): 38%
- inhibition at 50 µM (IL-8; 50 μM, PMA-stimulated PBL): 53%
- inhibition at 50 µM (IL-8; 50 μM, zymosan-stimulated PBL): 88%

Structure (SMILES): CCC(=O)N(C)[C@H]1C[C@@H](C)O[C@@H](O[C@@H]2[C@@H](C)[C@H](O[C@H]3C[C@@](C)(OC)[C@@H](OC(=O)CCN(CC)CC)[C@H](C)O3)[C@@H](C)C(=O)O[C@H](CC)[C@@](C)(O)[C@H](O)[C@@H](C)NC(=O)[C@H](C)C[C@@]2(C)OC)[C@@H]1O [Example 63, 3′-N-methyl-3′-N-propionyl-4″-O-(3-diethylaminopropionyl)-6-O-methyl-9a-aza-9a-homoerythromycin A]
- Percentage of inhibition of IL-6 production (IL-6; 10 μM, LPS-stimulated PBL): 8%
- Percentage of inhibition of IL-6 production (IL-6; 10 μM, PMA-stimulated PBL): 24%
- Percentage of inhibition of IL-6 production (IL-6; 10 μM, zymosan-stimulated PBL): 0%
- Percentage of inhibition of IL-6 production (IL-6; 50 μM, LPS-stimulated PBL): 60%
- Percentage of inhibition of IL-6 production (IL-6; 50 μM, PMA-stimulated PBL): 62%
- Percentage of inhibition of IL-6 production (IL-6; 50 μM, zymosan-stimulated PBL): 90%
- Percentage of inhibition of TNF-α production (TNF-α; 10 μM, LPS-stimulated PBL): 0%
- Percentage of inhibition of TNF-α production (TNF-α; 10 μM, PMA-stimulated PBL): 21%
- Percentage of inhibition of TNF-α production (TNF-α; 10 μM, zymosan-stimulated PBL): 0%
- Percentage of inhibition of TNF-α production (TNF-α; 50 μM, LPS-stimulated PBL): 69%
- Percentage of inhibition of TNF-α production (TNF-α; 50 μM, PMA-stimulated PBL): 73%
- Percentage of inhibition of TNF-α production (TNF-α; 50 μM, zymosan-stimulated PBL): 87%
- Percentage of inhibition of IL-1α production (IL-1α; 10 μM, LPS-stimulated PBL): 59%
- Percentage of inhibition of IL-1α production (IL-1α; 10 μM, PMA-stimulated PBL): 52%
- Percentage of inhibition of IL-1α production (IL-1α; 10 μM, zymosan-stimulated PBL): 45%
- Percentage of inhibition of IL-1α production (IL-1α; 50 μM, LPS-stimulated PBL): 89%
- Percentage of inhibition of IL-1α production (IL-1α; 50 μM, PMA-stimulated PBL): 81%
- Percentage of inhibition of IL-1α production (IL-1α; 50 μM, zymosan-stimulated PBL): 100%
- Percentage of inhibition of IL-8 production (IL-8; 10 μM, LPS-stimulated PBL): 0%
- Percentage of inhibition of IL-8 production (IL-8; 10 μM, PMA-stimulated PBL): 0%
- Percentage of inhibition of IL-8 production (IL-8; 10 μM, zymosan-stimulated PBL): 0%
- Percentage of inhibition of IL-8 production (IL-8; 50 μM, LPS-stimulated PBL): 36%
- Percentage of inhibition of IL-8 production (IL-8; 50 μM, PMA-stimulated PBL): 3%
- Percentage of inhibition of IL-8 production (IL-8; 50 μM, zymosan-stimulated PBL): 44%
